Experimental findings from patent US12128028B2, “Heterocyclic sulfonamide derivatives and pharmaceutical uses thereof” (METRION BIOSCIENCES LIMITED, priority 2018, dated 2024) are described below.

The assay has as its target human Kv1.3 (Homo sapiens (Human), UniProt P22001). Kind of assay: Kv1.3 potency evaluation, automated patch clamp electrophysiology (QPatch HT) in CHO-Kv1.3 cells. In kind it is cell-based. The following applies: whole-cell QPatch HT, % inhibition of charge, step to +30 mV, four concentrations, N≥3 cells, read-out: hKv1.3 IC50. The source says: Biological Assays Kv1.3 Potency Evaluation Electrophysiology Recordings
A proprietary Chinese hamster ovary cell line stably expressing exogenous human a-subunits of Kv1.3 (CHO-Kv1.3) channel, validated biophysically and pharmacologically in house, was used to assess the ability of test compounds to block Kv1.3 currents using automated patch clamp electrophysiology. The QPatch HT system (Sophion Bioscience A/S, Denmark) was used with the conventional whole-cell configuration. This system is an automated, chip-based planar patch clamp device allowing for up to 48 parallel independent experiments in one experimental assay run. Cells are added to each well and drawn by suction onto a small aperture to obtain a Gigaohm seal between the cell membrane and treated silicon surface, and whole-cell recordings initiated after access is achieved by suction and/or voltage pulses. The QPatch HT uses static perfusion, whereby a small volume of recording solution or drug is added to a reservoir on the chip and the solution perfuses across the cell through quartz-lined microfluidic channels; this solution is removed by capillary action when the next sample application is made.
CHO-Kv1.3 cells were prepared for experiments by dissociation from T175 cell culture flasks using trypsin-EDTA (0.05%), cells were kept in serum free media in the cell hotel on board the QPatch HT. These cells were sampled, washed and re-suspended in extracellular recording solution by the QPatch HT immediately before application to the recording well site on the chip. Experiments were performed using the following solutions; extracellular solution contained (in mM); 150 NaCl, 10 KCl, 1 MgCl2, 3 CaCl2), 10 Glucose and 10 HEPES (pH 7.4, NaOH) and intracellular solution contained (in mM); 20 KCl, 120 KF, 10 HEPES, 10 EGTA, 5 ATP (pH 7.2, KOH).
The potency (Inhibitory Concentration 50%, IC50) of synthesized compounds against Kv1.3 was determined from concentration-response relationships established by cumulatively applying four escalating concentrations of test compound to an individual cell and a minimum of N≥3 individual cells of data per compound were used to generate the IC50 value.
On achieving the whole-cell configuration; two additions of vehicle (0.1-0.3% DMSO v/v) were applied to each cell in two bolus additions with a two minute recording period between each addition (four minutes total recording time). Following the vehicle period, four concentrations of test sample were applied as two bolus additions per test concentration at two minute intervals, and the effects on current measured during the four minute recording period.
Currents were elicited using a single step voltage protocol. From a holding potential of −80 mV the cell is depolarised to +30 mV (500 ms) resulting in an outward current before finally repolarising the cell by returning to the holding potential. The command voltage was applied at a frequency of 0.067 Hz throughout the duration of the experiment. For each sweep of the voltage protocol membrane current and the passive properties of the individual cells were recorded by QPatch assay software (version 5.2). Cursors were placed to calculate the charge (integral of the current recorded during cursor interval) between 2-490 ms (0.4-99%) of the 500 ms step to +30 mV.
The % inhibition of charge for each test concentration application period was calculated as the reduction in mean charge at the end of each concentration test period relative to the charge value measured at the end of the control (i.e. vehicle) period. Sigmoidal concentration response curves (four parameter logistic curve) were fitted to the % inhibition rom which the IC50 was determined. Curve fits were constrained at 0 and 100%.

Each structure is given as a SMILES string.

Chain of human Kv1.3 (P22001 whole entry): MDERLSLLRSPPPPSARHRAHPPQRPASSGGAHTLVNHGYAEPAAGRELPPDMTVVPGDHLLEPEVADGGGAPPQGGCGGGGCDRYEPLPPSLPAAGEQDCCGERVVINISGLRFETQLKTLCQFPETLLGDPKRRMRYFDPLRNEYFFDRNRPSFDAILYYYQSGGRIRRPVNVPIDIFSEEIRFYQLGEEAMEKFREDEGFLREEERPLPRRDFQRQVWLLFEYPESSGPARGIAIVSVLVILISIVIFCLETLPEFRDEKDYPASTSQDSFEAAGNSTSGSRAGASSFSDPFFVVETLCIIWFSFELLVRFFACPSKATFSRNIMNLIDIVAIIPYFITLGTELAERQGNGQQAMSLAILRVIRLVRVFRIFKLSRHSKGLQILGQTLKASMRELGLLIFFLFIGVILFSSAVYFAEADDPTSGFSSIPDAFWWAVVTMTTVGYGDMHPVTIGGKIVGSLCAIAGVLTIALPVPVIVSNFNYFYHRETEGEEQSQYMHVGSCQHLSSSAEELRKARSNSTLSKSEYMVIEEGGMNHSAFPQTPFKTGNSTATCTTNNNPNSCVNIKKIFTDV

As usually defined, the IC50 is the concentration that gives 50% inhibition. `CC(C)(C)CNC(=O)[C@@H]1NC(C23CC(N(Cc4ccc(Cl)c(Cl)c4)S(=O)(=O)CCC(C)(F)F)(C2)C3)=NC1(C)C` (mixture of isomers) [Example 203]: the IC50 is 134 nM.

On to `CC1(C)N=C(C23CC(N(Cc4ccc(Cl)c(F)c4)S(=O)(=O)c4ccccc4)(C2)C3)N[C@H]1C(=O)NCC1CC1` (mixture of isomers) [Example 56], for which the IC50 was determined as 50 nM.

As for `CCCS(=O)(=O)N(Cc1ccc(Cl)c(Cl)c1)C12CC(C3=NC(C)(C)[C@H](C(=O)N4CC5CCC(C4)C5(F)F)N3)(C1)C2` (mixture of isomers) [Example 187], the IC50 came out at 110 nM.

For the compound `CC1(C)N=C(C23CC(N(Cc4ccc(Cl)c(F)c4)S(=O)(=O)c4ccccc4)(C2)C3)N[C@H]1C(=O)NC1CC(C(F)F)C1` (mixture of isomers) [Example 89], the IC50 stood at 63 nM.

On to `CCCNC(=O)[C@@H]1NC(C23CC(N(Cc4ccc(Cl)c(F)c4)S(=O)(=O)c4ccccc4)(C2)C3)=NC1(C)C` (mixture of isomers) [Example 19], for which the IC50 turned out to be 37 nM.

On to `CC(F)(F)CCS(=O)(=O)N(Cc1ccc(Cl)c(Cl)c1)C12CC(C3=NC(C)(C)[C@H](C(=O)NC45CC(C4)C5)N3)(C1)C2` (mixture of isomers) [Example 74], for which the IC50 amounted to 58 nM.

As for `CC1(C)N=C(C23CC(N(Cc4ccc(C(F)F)cc4)S(=O)(=O)c4ccccc4)(C2)C3)N[C@H]1C(=O)NCCC(F)(F)F` (mixture of isomers) [Example 122], the IC50 stood at 75 nM.

In the case of `CC1(C)N=C(C23CC(N(Cc4ccc(Cl)cc4)S(=O)(=O)c4cccc(Cl)c4)(C2)C3)N[C@H]1C(=O)NCCC(F)(F)F` (mixture of isomers) [Example 52], the IC50 is 49 nM.

For the compound `CC(C)(F)CNC(=O)[C@@H]1NC(C23CC(N(Cc4ccc(Cl)c(Cl)c4)S(=O)(=O)CCC(F)F)(C2)C3)=NC1(C)C` (mixture of isomers) [Example 50], the IC50 was 48 nM.

Turning to `CC1(C)N=C(C23CC(N(Cc4ccc(Cl)c(F)c4)S(=O)(=O)c4ccccc4)(C2)C3)N[C@H]1C(=O)NC12CC(C(F)(F)F)(C1)C2` (mixture of isomers) [Example 242], the IC50 amounted to 248 nM.

With `CC1(C)N=C(C23CC(N(Cc4ccc(Cl)c(F)c4)S(=O)(=O)c4ccccc4)(C2)C3)N[C@H]1C(=O)N1CC2(CCC2)C1` (mixture of isomers) [Example 87], the IC50 came out at 63 nM.

On to `C[C@]1(C(=O)NCCC(F)(F)F)CN=C(C23CC(N(Cc4ccc(C(F)(F)F)cc4)S(=O)(=O)c4ccc(F)cc4)(C2)C3)N1` (mixture of isomers) [Example 202], for which the IC50 is 134 nM.

Regarding `CN(CC(F)(F)C(F)(F)F)C(=O)[C@@H]1NC(C23CC(N(Cc4ccc(Cl)c(Cl)c4)S(=O)(=O)c4ccccc4)(C2)C3)=NC1(C)C` (mixture of isomers) [Example 215], the IC50 turned out to be 159 nM.

Take `NC(=O)C1(Cc2ccccc2)CN=C(C23CC(N(Cc4ccc(C(F)(F)F)cc4)S(=O)(=O)c4ccc(F)cc4)(C2)C3)N1` (stereo not shown) [Example 263]: the IC50 was 400 nM.

With `CC1(C)N=C(C23CC(N(Cc4ccc(Cl)cc4)S(=O)(=O)c4ccccc4)(C2)C3)NC1C(=O)NCCC(F)(F)F` (stereo not shown) [Example 148], the IC50 turned out to be 89 nM.

In the case of `CC1(C)N=C(C23CC(N(Cc4ccc(Cl)c(Cl)c4)S(=O)(=O)CCC(F)F)(C2)C3)N[C@H]1C(=O)NC1CC(C(F)F)C1` (mixture of isomers) [Example 204], the IC50 is 135 nM.

As for `CC(F)(F)CCS(=O)(=O)N(Cc1ccc(Cl)cc1)C12CC(C3=NC(C)(C)[C@H](C(=O)NCCC(F)(F)F)N3)(C1)C2` (mixture of isomers) [Example 93], the IC50 turned out to be 64 nM.

`CN(CC1CC1(F)F)C(=O)[C@@H]1NC(C23CC(N(Cc4ccc(Cl)c(F)c4)S(=O)(=O)c4ccccc4)(C2)C3)=NC1(C)C` (mixture of isomers) [Example 69]: the IC50 is 55 nM.

As for `CN(CCC(F)(F)F)C(=O)[C@@H]1NC(C23CC(N(Cc4ccc(Cl)c(F)c4)S(=O)(=O)c4ccccc4)(C2)C3)=NC1(C)C` (mixture of isomers) [Example 3], the IC50 is 61 nM.

`C[C@]1(C(=O)NCC2CCCCC2)CN=C(C23CC(N(Cc4ccc(C(F)(F)F)cc4)S(=O)(=O)c4ccc(F)cc4)(C2)C3)N1` (mixture of isomers) [Example 290]: the IC50 was 1060 nM.

For the compound `Cc1ccccc1S(=O)(=O)N(Cc1ccc(Cl)cc1)C12CC(C3=NC(C)(C)[C@H](C(=O)NCCC(F)(F)F)N3)(C1)C2` (mixture of isomers) [Example 219], the IC50 stood at 168 nM.

For `CC1(C)N=C(C23CC(N(Cc4ccc(Cl)c(Cl)c4)S(=O)(=O)CCC(F)F)(C2)C3)N[C@H]1C(=O)NC1CC(C(F)F)C1` (mixture of isomers) [Example 177], the IC50 stood at 104 nM.

As for `CCCS(=O)(=O)N(Cc1ccc(Cl)c(Cl)c1)C12CC(C3=NC(C)(C)[C@H](C(=O)N4CCC(C(F)(F)F)CC4)N3)(C1)C2` (mixture of isomers) [Example 130], the IC50 amounted to 78 nM.

In the case of `CC1(C)N=C(C23CC(N(Cc4ccc(Cl)cc4)S(C)(=O)=O)(C2)C3)N[C@H]1C(=O)NCCC(F)(F)F` (mixture of isomers) [Example 274], the concentration for half-maximal inhibition (IC50) came out at 559 nM.

Turning to `CC([C@@H]1CN=C(C23CC(N(Cc4ccc(C(F)(F)F)cc4)S(=O)(=O)c4ccc(F)cc4)(C2)C3)N1)N(C)C` (stereo partly shown) [Example 281], the IC50 was determined as 632 nM.

Regarding `CN(C(=O)[C@@H]1NC(C23CC(N(Cc4ccc(Cl)c(Cl)c4)S(=O)(=O)c4ccccc4)(C2)C3)=NC1(C)C)C1CC(C(F)F)C1` (mixture of isomers) [Example 120], the IC50 came out at 74 nM.

On to `CC1(C)N=C(C23CC(N(Cc4ccc(C(F)(F)F)cc4)S(=O)(=O)c4ccc(F)cc4)(C2)C3)NC1C(=O)NCC1(O)CCC1` (stereo not shown) [Example 271], for which the IC50 turned out to be 494 nM.

For the compound `CC1(C)N=C(C23CC(N(Cc4ccc(C(F)(F)F)cc4)S(=O)(=O)c4ccc(F)cc4)(C2)C3)NC1C(=O)NCC1(C#N)CCC1` (stereo not shown) [Example 164], the IC50 turned out to be 99 nM.

On to `CC1(C)N=C(C23CC(N(Cc4cc(F)c(Cl)c(F)c4)S(=O)(=O)c4ccccc4)(C2)C3)N[C@H]1C(=O)NCCC(F)(F)F` (mixture of isomers) [Example 155], for which the IC50 came out at 92 nM.

Take `CC(C)(C)CNC(=O)[C@@H]1NC(C23CC(N(Cc4ccc(Cl)c(F)c4)S(=O)(=O)c4ccccc4)(C2)C3)=NC1(C)C` (mixture of isomers) [Example 53]: the IC50 worked out at 49 nM.

With `CC1(C)N=C(C23CC(N(Cc4ccc(Cl)cc4)S(=O)(=O)CCO)(C2)C3)N[C@H]1C(=O)NCCC(F)(F)F` (mixture of isomers) [Example 294], the IC50 came to 10500 nM.

With `CC1(C)N=C(C23CC(N(Cc4ccc(Cl)c(Cl)c4)S(=O)(=O)CCC(F)F)(C2)C3)N[C@H]1C(=O)NCCC(F)(F)F` (mixture of isomers) [Example 165], the IC50 worked out at 99 nM.

`CC1N=C(C23CC(N(Cc4ccc(C(F)(F)F)cc4)S(=O)(=O)c4ccc(F)cc4)(C2)C3)N[C@@]1(C)C(=O)NCC1CCC1` (mixture of isomers) [Example 184]: the IC50 was 109 nM.

`Cn1ccc(S(=O)(=O)N(Cc2ccc(Cl)cc2)C23CC(C4=NC(C)(C)[C@H](C(=O)NCCC(F)(F)F)N4)(C2)C3)n1` (mixture of isomers) [Example 241]: the IC50 worked out at 243 nM.

Turning to `CC1(C)N=C(C23CC(N(Cc4ccc(Cl)cc4)S(=O)(=O)c4ccccc4)(C2)C3)N[C@H]1C(=O)N1CCC(F)(F)CC1` (mixture of isomers) [Example 76], the IC50 worked out at 60 nM.

Consider `CC1(C)N=C(C23CC(N(Cc4ccc(Cl)c(F)c4)S(=O)(=O)c4ccccc4)(C2)C3)N[C@H]1C(=O)NCC1(C(F)(F)F)CCC1` (mixture of isomers) [Example 162], for which the IC50 amounted to 98 nM.

Turning to `CC1(C)N=C(C23CC(N(Cc4ccc(C(F)(F)F)cc4)S(=O)(=O)c4ccc(F)cc4)(C2)C3)NC1C(=O)N1CCC(F)(F)CC1` (stereo not shown) [Example 236], the IC50 turned out to be 213 nM.
